Test results taken from patent US6894073B2, “Use of diterpene compound as a therapeutic agent of inflammation, immune disease or cancer” (Korea Research Institute of Bioscience and Biotechnology, priority 2000, dated 2005).

Columns and labels:
[1] = test system: nitric oxide (NO); experiment: Inhibition of NO production (nitrite, Griess reagent) in LPS-stimulated Raw 264.7 macrophage cells; format: cell-based, murine; settings: for NO: 1 μg/ml LPS, 24 hours; for inhibition at 0.03 µg/mL / inhibition at 0.3 µg/mL / inhibition at 3 µg/mL: read-out: Inhibition rate (%) of NO production; for IC50: LPS-stimulated Raw 264.7 cells
Protocol: To investigate whether kaurane diterpene compounds obtained in Example 1 can inhibit the production of nitric oxide (NO) which induces apoptosis of the immune and neuron cells, the present inventors measured the amount of nitrite (NO2) accumulated in the culture medium of LPS-stimulated murine macrophage cells, which were treated with four kaurane diterpene compounds, kamebanin, kamebacetal A, kamebakaurin, or exisanin A.
In detail, Raw 264.7 murine macrophage cells (ATCC TIB-71) in DMEM medium were seeded to 96-well plate at a cell density of 1×10^5 cells/well and incubated for 3 hours at 37° C., 5% CO2 incubator. To induce NO synthesis in the macrophage cell, 1 μg/ml of LPS and 3 μg/ml, 0.3 μg/ml, and 0.03 μg/ml of kaurane diterpene compounds of the present invention were added to the medium and the plate was incubated for 24 hours. The amount of NO2, the final oxidation product of NO induced by the LPS in the medium was measured as followed. After collecting and centrifuging incubated medium, 100 μl of Griess reagent was added into 100 μl of each culture medium. Then, the medium was incubated for ten minutes at room temperature and absorbance at 550 nm wavelength was measured. Griess reagent was prepared by mixing a solution, wherein 1% sulfanilamide was dissolved in 5% phosphoric acid, and a solution of 0.1% naphyhylethylenediamine-HCl by a 1:1 ratio. To measure the amount of standard NO synthesis, NaNO2 was serially diluted and the absorbance was measured after reacting it with Griess reagent. From this, the standard curve for the amount of NO production was obtained. The amount of NO production in the culture medium treated with each compound was estimated using standard curve for NO determination.

[2] = test system: prostaglandin E2; experiment: Inhibition of prostaglandin E2 production in LPS-stimulated Raw 264.7 cells (enzyme immunometric assay); format: cell-based, murine; settings: for PGE2: 1 μg/ml LPS, 16 hours; for inhibition at 0.03 µg/mL / inhibition at 0.3 µg/mL / inhibition at 3 µg/mL / IC50: Mus musculus, RAW264.7; for inhibition at 0.03 µg/mL / inhibition at 0.3 µg/mL / inhibition at 3 µg/mL: read-out: Inhibition rate (%) of prostaglandin E2 production; for IC50: LPS-stimulated Raw 264.7 cells
Protocol: To investigate whether kaurane diterpene compounds obtained in Example 1 can inhibit the production of prostaglandin, which induces inflammatory reaction, the present inventors measured the amount of prostaglandin E2 accumulated in the culture medium of LPS-stimulated murine macrophage cells, which were treated with four kaurane diterpene compounds, kamebanin, kamebacetal A, kamebakaurin, or exisanin A.
In detail, Raw 264.7 cells in DMEM medium were seeded to a 96-well plate at a cell density of 1×10^5 cells/well and were incubated for 18 hours. Cyclooxygenase-1, the constitutive rate-determining enzyme of the prostaglandin synthesis was inactivated by incubating for 3 hrs with 500 μM of aspirin and each well was washed two times with PBS (phosphate-buffered saline). To each well were added 1 μg/ml of LPS and 3 μg/ml, 0.3 μg/ml, and 0.03 μg/ml concentrations of kaurane diterpene compounds of the present invention and was incubated for 16 hours. After collecting supernatant by centrifugation, the amount of prostaglandin in the culture medium was quantified by enzyme immunometric assay.

[3] = test system: TNF-α; experiment: Inhibition of TNF-α production in LPS-stimulated Raw 264.7 cells (enzyme immunometric assay); format: cell-based, murine; settings: for TNF-α: 1 μg/ml LPS, 16 hours; for inhibition at 0.03 µg/mL / inhibition at 0.3 µg/mL / inhibition at 3 µg/mL / IC50: Mus musculus, RAW264.7; for inhibition at 0.03 µg/mL / inhibition at 0.3 µg/mL / inhibition at 3 µg/mL: read-out: Inhibition rate (%) of TNF-α production; for IC50: LPS-stimulated Raw 264.7 cells
Protocol: To investigate whether kaurane diterpene compounds obtained in Example 1 can inhibit effectively the production of tumor necrosis factor-α (TNF-α), one of the inflammatory mediator, which confers cytotoxic effect and induces the production of prostaglandin and cytokines, the present inventors measured the amount of TNF-α accumulated in the culture medium of LPS-stimulated murine macrophage cells, which were treated with four kaurane diterpene compounds, kamebanin, kamebacetal A, kamebakaurin, or exisanin A.
In detail, Raw 264.7 cells in DMEM medium were seeded to a 96-well plate at a cell density of 1×10^5 cells/well and were incubated for 3 hours at 37° C. in a 5% CO2 incubator. To each well were added 1 μg/ml of LPS and 3 μg/ml, 0.3 μg/ml, and 0.03 μg/ml concentrations of kaurane diterpene compounds of the present invention and was incubated for 16 hours. After collecting supernatant by centrifugation, the amount of TNF-α in the culture medium was quantified by enzyme immunometric assay.

[4] = test system: NF-κB; experiment: NF-κB activation, SEAP reporter in LPS-stimulated RAW-NF-AP cells; format: cell-based, murine; settings: for inhibition at 0.03 µg/mL / inhibition at 0.3 µg/mL / inhibition at 3 µg/mL / IC50: Mus musculus; for inhibition at 0.03 µg/mL: 0.03 μg/ml compound; for inhibition at 0.03 µg/mL / inhibition at 0.3 µg/mL / inhibition at 3 µg/mL: 1 μg/ml LPS, 16 hours; for inhibition at 0.3 µg/mL: 0.3 μg/ml compound; for inhibition at 3 µg/mL: 3 μg/ml compound; for IC50: RAW-NF-AP cells, LPS
Protocol: RAW-NF-AP cells, which can be used effectively to detect the NF-κB dependent expression of reporter gene, (Korean Patent Application No. 1999-0006025), were seeded to a 96-well plate at a cell density of 1×10^5 cell/well and were incubated for 3 hours at 37° C. in a 5% CO2 incubator. Thereafter, 1 μg/ml concentration of LPS and 0.03 μg/ml, 0.3 μg/ml, and 3 μg/ml concentrations of kaurane diterpene compounds of the present invention were added to each well and was incubated for 16 hours. After collecting supernatant by centrifugation, the amount of secreted alkaline phosphatase (SEAP) in the culture medium of which expression is regulated by the activation of NF-κB was quantified.

[5] = test system: adjuvant arthritis model; experiment: Adjuvant arthritis model, paw volume; format: in vivo, Sprague-Dawley rat; settings: day 16-22, paw volume on 23rd day
Protocol: Finding the inhibitory effect of kaurane diterpene compounds on the production of NO, prostaglandin, and TNF, and on the activation of NF-κB in the murine macrophage cells stimulated by LPS, the present inventors investigated the pharmacological efficacy of kaurane diterpene compounds with a adjuvant arthritis model according to the method of Futaki et al. (General Pharmacology, 1993, 24, 105-110). To prepare animal model of the arthritis, 0.05 ml of 0.1% Mycobacterium butyricum suspended in Freud adjuvant (Sigma, USA) was injected intradermally to the left hind paw of the male Sprague-Dawley rat of 180 g weight. On the fifteenth day after injection, the volume of the right paw of the rats was measured using plethysmometer (Ugo-Basile, Italy), and only the rats having arthritis on the right leg were selected. Thereafter, the selected rats were divided into four groups, six rats per each group. Four kinds of kaurane diterpene compounds of the present invention were administered orally to each groups everyday from the sixteenth day to twenty-second day with doses of 3 mg/kg/day, 10 mg/kg/day, and 20 mg/kg/day in the form of the suspended solution with 0.1% methylcellulose. The inhibition rate of arthritis was calculated by comparing the volume of the paw with that of the control on the 23rd day.

[6] = Mus musculus, RAW264.7, 0.03 μg/ml compound
[7] = Mus musculus, RAW264.7, 0.3 μg/ml compound
[8] = Mus musculus, RAW264.7, 3 μg/ml compound

Row | SMILES | NO ([1]; 0.03 μg/ml compound) | NO ([1]; 0.3 μg/ml compound) | NO ([1]; 3 μg/ml compound) | inhibition at 0.03 µg/mL [1, 6] | inhibition at 0.3 µg/mL [1, 7] | inhibition at 3 µg/mL [1, 8] | IC50 ([1]; Mus musculus, RAW264.7) | PGE2 ([2]; 0.03 μg/ml compound) | PGE2 ([2]; 0.3 μg/ml compound) | PGE2 ([2]; 3 μg/ml compound) | inhibition at 0.03 µg/mL ([2]; 0.03 μg/ml compound) | inhibition at 0.3 µg/mL ([2]; 0.3 μg/ml compound) | inhibition at 3 µg/mL ([2]; 3 μg/ml compound) | IC50 [2] | TNF-α ([3]; 0.03 μg/ml compound) | TNF-α ([3]; 0.3 μg/ml compound) | TNF-α ([3]; 3 μg/ml compound) | inhibition at 0.03 µg/mL ([3]; 0.03 μg/ml compound) | inhibition at 0.3 µg/mL ([3]; 0.3 μg/ml compound) | inhibition at 3 µg/mL ([3]; 3 μg/ml compound) | also measured
1 | C=C1C(=O)[C@@]23C(C[C@H](O)[C@@H]1[C@H]2O)[C@@]1(C)C(C[C@H]3O)C(C)(C)CC[C@@H]1O (stereo partly shown) [Exisanin A, exisanin A] | 32.5 ± 3.5 µM | 22.2 ± 2.3 µM | 6.7 ± 0.8 µM | 37% | 59.3% | 92.5% | 0.35 µM | 13.7 ± 0.3 ng/mL | 10.7 ± 1.3 ng/mL | 5.7 ± 0.7 ng/mL | -16.1% | 11.7% | 57.7% | 5.37 µM | 1243.0 ± 195.6 pg/mL | 936.1 ± 0.00 pg/mL | 103.2 ± 12.8 pg/mL | 25.8% | 44.4% | 94.8% | IC50 [3]: 0.61 µM; inhibition at 0.03 µg/mL [4]: -2.6%; inhibition at 0.3 µg/mL [4]: 19.4%; inhibition at 3 µg/mL [4]: 93.7%; IC50 [4]: 1.66 µM; Inhibition rate (%) of arthritis ([5]; 3 mg/kg/day oral): 33 ± 14%; Inhibition rate (%) of arthritis ([5]; 10 mg/kg/day oral): 52 ± 12%; Inhibition rate (%) of arthritis ([5]; 20 mg/kg/day oral): 64 ± 13%
2 | C=C1C(=O)[C@@]23C4CC5C(C)(C)CC[C@H](O)[C@@]5(C(OC)O4)C2CC[C@@H]1[C@H]3O (stereo partly shown) [Kamebacetal A, kamebacetal A] | 38.5 ± 4.8 µM | 19.9 ± 3.7 µM | 3.3 ± 0.7 µM | 23.9% | 64.2% | 100% | 0.584 µM | 13.2 ± 0.8 ng/mL | 9.8 ± 1.4 ng/mL | 2.7 ± 0.4 ng/mL | -11.3% | 19.6% | 85.6% | 2.8 µM | 1495.0 ± 239.7 pg/mL | 691.4 ± 152.7 pg/mL | 38.9 ± 1.0 pg/mL | 10.5% | 59.2% | 98.7% | NO production compared with negative control (no LPS) ([1]; 3 μg/ml): nearly the same as that of the negative control; IC50 [1]: 0.58 µM; IC50 [3]: 0.6 µM; SEAP activity compared with negative control (no LPS) ([4]; 3 μg/ml): to the extent of negative control; inhibition at 0.03 µg/mL [4]: 1.3%; inhibition at 0.3 µg/mL [4]: 62.2%; inhibition at 3 µg/mL [4]: 110%; IC50 [4]: 2.45 µM; Inhibition rate (%) of arthritis ([5]; 3 mg/kg/day oral): 33 ± 18%; Inhibition rate (%) of arthritis ([5]; 10 mg/kg/day oral): 55 ± 10%; Inhibition rate (%) of arthritis ([5]; 20 mg/kg/day oral): 69 ± 14%
3 | C=C1C(=O)[C@@]23[C@H](O)C[C@@H]4C(C)(C)CC[C@H](O)[C@@]4(C)[C@@H]2CC[C@@H]1[C@H]3O [Kamebanin, kamebanin] | 23.4 ± 1.3 µM | 4.6 ± 0.6 µM | 3.6 ± 0.3 µM | 56.5% | 97.2% | 99.3% | 0.06 µM | 14.4 ± 2.2 ng/mL | 4.0 ± 0.3 ng/mL | 0.7 ± 0.1 ng/mL | -22.5% | 73.9% | 104% | 0.88 µM | 1835.0 ± 158.8 pg/mL | 805.6 ± 195.4 pg/mL | 19.8 ± 0.7 pg/mL | -10% | 52.3% | 99.8% | Prostaglandin production compared with negative control (no LPS) ([2]; 3 μg/ml): nearly the same as that of the negative control; IC50 [3]: 1 µM; inhibition at 0.03 µg/mL [4]: 0.6%; inhibition at 0.3 µg/mL [4]: 48.5%; inhibition at 3 µg/mL [4]: 99.7%; IC50 [4]: 0.72 µM; Inhibition rate (%) of arthritis ([5]; 3 mg/kg/day oral): 30 ± 15%; Inhibition rate (%) of arthritis ([5]; 10 mg/kg/day oral): 50 ± 12%; Inhibition rate (%) of arthritis ([5]; 20 mg/kg/day oral): 68 ± 14%
